Measured values taken from patent US5968526A, “T cell epitopes of the major allergens from Dermatophagoides (house dust mite)” (Immulogic Pharamaceutical Corporation, priority 1995, dated 1999).

Experiments:
[1] = system: PBMC from mite-allergic patient; assay: primary T cell (PBMC) proliferation, mite-allergic patient, tritiated thymidine; type: cell-based, human; conditions: medium 1071 ± 30
In short: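 Ficoll-purified PBMC (5×10^4/well, triplicate) from one mite-allergic donor cultured 7 days at 37 °C with graded concentrations of purified Der p I, Der p II or their peptides in RPMI-1640 plus 5% human AB serum. 1 μCi ^3H-thymidine added for 16 h; CPM counted, stimulation index = antigen CPM/medium-only CPM.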

[2] = system: T cell lines primed in vitro to Der p II; assay: secondary proliferation of Der p II-primed T cell lines (Examples VIII, X, XI); type: cell-based, human; conditions: Der p II T-cell map and analogs
In short: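 PBMC from house dust mite-allergic patients primed in vitro with native or recombinant Der p II at 20 μg/ml (or recombinant at 3 μg/ml), with x-irradiated (3500 Rads) autologous PBMC as antigen-presenting cells. Lines then challenged with Der p II-derived peptides; proliferation expressed as S.I., ranked sum scoring top three responses 3, 2, 1.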

Row | Substance | CPM ± S.D. ([1]; 10 μg/ml) [CPM] | CPM ± S.D. ([1]; 30 μg/ml) [CPM] | CPM ± S.D. ([1]; 100 μg/ml) [CPM] | T-cell reactivity (DPII-22 series development) [2]
1 | DP I-1: Der p I peptide, amino acid residues 1-20 (TNACSINGNAPAEIDLRQMR) | 1099 ± 48 | 3527 ± 73 | 2746 ± 81 | –
2 | DP I-3: Der p I peptide (TVTPIRMQGGCGSCWAFSGVAATESAYLA) | 2608 ± 52 | 1561 ± 13 | 5252 ± 67 | –
3 | DP II-22.14: DKELEAVFEANQNTKTAKAE; unique peptide | – | – | – | almost the same T-cell reactivity as the "parent" peptide
4 | DP II-22: QLEAVFEANQNTKTAKIEIKASIDGLEV | – | – | – | exhibits most of the reactivity found in the individual peptides
